Where a name gives a salt, the structure may show the parent alone.
How the values were obtained:
[1] = Antibiotiki 24(1979) p.659; cited from earlier work
[2] = Arzneimittelforschung 27(1977) p. 132; cited from earlier work
[3] = Toxicity test in mouse (LD50, intraperitoneal application); settings: in vivo, ip
Description: The results of these toxicity tests on mouse and rat are shown in the following table as well as the effective dosage: […]

Structure (SMILES) | antibiotic action [1] | protection against radiation [2] | LD50 [3] [mg/kg]
Cc1cc(=O)[nH]c(=O)[nH]1 [6-methyluracil] | has an antibiotic action | can protect against radiation | 
Cc1[nH]c(=O)n(C)c(=O)c1NC(=O)COc1ccc(Cl)cc1 [Example 1, 5-(p-Chlorophenoxy-acetamido)-1,4-dimethyluracil] |  |  | > 1700
Cc1[nH]c(=O)[nH]c(=O)c1NC(=O)COc1ccc(Cl)cc1 [Example 2, 5-(p-Chlorophenoxy-acetamido)-4-methyluracil] |  |  | 800
Cc1c(NC(=O)COc2ccc(Cl)cc2)c(=O)n(C)c(=O)n1C [Example 3] |  |  | > 1700
Cn1c(N)c(NC(=O)COc2ccc(Cl)cc2)c(=O)n(C)c1=O [Example 4, 4-amino-5-(p-Chlorophenoxy-acetamido)-1,3-dimethyluracil] |  |  | > 1700
CN(C)CCOC(=O)COc1ccc(Cl)cc1 [Meclofenoxate HCl] |  |  | 856
NC(=O)CN1CCCC1=O [Piracetam] |  |  | > 2000

Reference: patent US5185341A, “Substituted 5-(phenoxyalkanoylamino)-uracil compounds, methods for making same and pharmaceutical compositions based on same” (Arzneimittelwerk Dresden GMBH, priority 1990, dated 1993)
